Converted amounts (≈) assume the structure as drawn.
How the values were obtained:
[1] = Glass transition temperature determination by DSC; assay type: physicochemical; details: 0 to 210° C. at 10° C./min
Protocol: Type A: Accurately weighted Type A sample (2˜5 mg) was placed in a DSC pan which was then sealed and placed in TA Instruments Q2000. The pan was heated from room temperature to 230° C. at a rate of 20° C./min and after 5 min, rapidly cooled to 0° C. at a rate of 50° C./min. After another 5 min, the DSC analysis was carried out between 0 to 210° C. at a rate of 10° C./min.
ASD: Accurately weighted ASD sample (2˜5 mg) was placed in a DSC pan which was then sealed and placed in TA Instruments Q2000. The pan was heated from room temperature to 135° C. at a rate of 20° C./min and after 5 minutes, rapidly cooled to 0° C. at a rate of 50° C./min. After another 5 min, the DSC analysis was carried out between 0 to 210° C. at a rate of 10° C./min (FIG. 2 and FIG. 3).

[2] = Equilibrium solubility in water; assay type: physicochemical; details: after equilibrium in water at room temperature for 24 hours
[3] = Solubility profiles in pH 6.8 phosphate buffer; assay type: physicochemical; details: aqueous buffer, thermodynamic from solid, 37° C., 150 rpm, n = 3
Protocol: Phosphate buffer (pH 6.8): 3.40 g of potassium dihydrogen phosphate and 0.45 g of sodium hydroxide were dissolved in 500 mL of water.
Type A: About 8.0 mg of Type A sample was added to 20 mL of the phosphate buffer (pH 6.8) in a 30-mL glass vial. The vial was capped, placed in a shaker, and kept shaking with 150 rpm at 37° C. At indicated time intervals (10, 30, 60, 120, 240 min), a fraction of the suspension was removed and filtered through a 0.45-μm filter by discarding the first part of the filtrate. The filtrate was diluted and then analyzed by HPLC.
ASD: An appropriate amount of ASD (about 3.0 mg of Compound I) was added to 7.5 mL of the phosphate buffer (pH 6.8) in a 30-mL glass vial. The vial was capped, placed in a shaker, and kept shaking with 150 rpm at 37° C. At indicated time intervals (10, 30, 60, 120, 240 min), a fraction of the suspension was removed and centrifuged at 12,000 rpm for 5 minutes to give a clear solution that was then analyzed by HPLC.

[4] = In vivo PK, oral administration in beagle dogs; details: dog, blood, fasted beagle dogs, 3 mg/kg, Type A as 0.5% MC suspension, HPMCAS-10-SDD as tablet
Protocol: Type A and HPMCAS-10-SDD were formulated with excipients, respectively. The PK properties of two formulations administered orally in beagle dogs were evaluated. Each formulation was tested in three dogs, each weighed 8˜12 kg.
A formulation was prepared by wet granulation. Firstly, mannitol, pregelatinized starch, sodium carboxymethyl starch and sodium dodecyl sulfate of different amounts were mixed evenly according to Table 8. Secondly, Type A and Povidone K30 were added into an appropriate amount of absolute alcohol, stirred, and mixed as adhesive. Finally, the adhesive was added to the evenly mixed excipients, followed by granulation, drying, addition of magnesium stearate, and mixing into a powder.
The above formulation was added to 0.5% methylcellulose (MC) to give a suspension containing 0.6 mg/mL of Compound I. The suspension was then orally administered to fasted beagle dogs at 5 mL/kg, which was equivalent to a dose of 3 mg/kg. Blood samples were collected at 0.25, 0.5, 1, 2, 4, 8 and 24 hours post dose. Concentrations of Compound I were quantified by LC-MS/MS analysis using an API-4500 mass spectrometer.
A formulation was prepared by dry granulation. […]
Four tablets were orally administered to fasted beagle dogs at a dose of 3 mg/kg. […] Concentrations of Compound I were quantified by LC-MS/MS analysis.

[5] = Stability assessment of ASD (XRPD, DSC, solubility, relative substances after storage); assay type: physicochemical; details: no storage (drug substance)
Excerpt: Capped brown glass vials each containing an ASD sample (HPMCAS-10-SDD and PVPVA-10-HME) were placed inside stability chambers.

Work on C=CC(=O)N1CC[C@H](n2nc(C#Cc3cc(OC)cc(OC)c3)c(C(N)=O)c2NC)C1 [Type A, (S)-1-(1-acryloylpyrrolidin-3-yl)-3-((3,5-dimethoxyphenyl)ethynyl)-5-(methylamino)-1H-pyrazole-4-carboxamide] yielded a Tg [1] of 70.1 °C, a solubility [2] of 6.4 µg/mL (≈ 15.1 µM) and a solubility at 10 min ([3]; 10 min) of 4.88 µg/mL (≈ 11.5 µM). It also gave a solubility at 30 min ([3]; 30 min) of 7.91 µg/mL (≈ 18.7 µM), a solubility at 60 min ([3]; 60 min) of 7.81 µg/mL (≈ 18.4 µM) and a solubility at 120 min ([3]; 120 min) of 7.62 µg/mL (≈ 18 µM). The solubility at 240 min ([3]; 240 min) was 8.47 µg/mL (≈ 20 µM), the AUC(0-t) [4] was 1250 ng·h/mL and the Cmax [4] was 270 ng/mL. For the same compound, the “Total Impurities” value [5] was 0.19%.
